Measurements from patent US20030129684A1, “Method for detecting fungicides” (priority 2000, published 2003).

Key:
Rhodotorula rubra [1] = test: Bioautographic detection of various fungicides on TLC plate, staining with optical brightener, evaluation at 366 nm; type: cell-based; design: key to Zone of inhibition 2 ppb / Zone of inhibition 500 ppt / Zone of inhibition 100 ppt: −: no zone of inhibition; +: small zone of inhibition; ++: clearly visible zone of inhibition; settings: for Zone of inhibition 2 ppb / Zone of inhibition 100 ppt / Zone of inhibition 500 ppt: optical brightener, 366 nm, 20 hours incubation
Description: The evaluation is carried out by staining with optical brightener (0.04% of Blankophor® BA 267% from Bayer AG, Germany, in 0.1 mol/l NaOH solution). To this end, the TLC plate is dried, wetted with the stain solution and subsequently stored for 5 minutes at room temperature. The evaluation is carried out at 366 nm. The zones of inhibition are evident as dark spots against a fluorescent background.

Rhodotorula rubra [2] = settings: fluorescence extinction at 254 nm; result in words
Description: 200 ml of deionised water, 10 g of Sabouraud 2% glucose broth and 0.11 g of Gelrite® are boiled until sterile. The test organism is then added in the form of a lyophilisate or living culture and pre-incubated for 3 hours at 35° C.
The developed TLC plate is dipped briefly into the fungal suspension, and excess suspension is removed from the base of the plate. The TLC plate is subsequently incubated for 20 hours at room temperature in a can lined with moist paper.
The evaluation is carried out by fluorescence extinction at 254 nm.

Compound	Zone of inhibition 2 ppb (Rhodotorula rubra [1])	Zone of inhibition 100 ppt (Rhodotorula rubra [1])	Zone of inhibition 500 ppt (Rhodotorula rubra [1])	Detection limit (Rhodotorula rubra [1]; also printed as 2 μg/kg)	Detection limit (Rhodotorula rubra [1]; also printed as 500 ng/kg)	zone of inhibition with Rf about 1.0 (Rhodotorula rubra [2])	zone of inhibition on the starting line (Rf=0) (Rhodotorula rubra [2])
CC(Cc1ccc(C(C)(C)C)cc1)CN1C[C@@H](C)O[C@@H](C)C1 (some centres unmarked) [A1, fenpropimorph]	++	−	−	2 ppb (2 μg/kg)			
C[Si](Cn1cncn1)(c1ccc(F)cc1)c1ccc(F)cc1 [A2, flusilazole]	++	−	+		500 ppt (500 ng/kg)		
CCCC1COC(Cn2cncn2)(c2ccc(Cl)cc2Cl)O1 (centres unmarked) [A3, propiconazole]	++	−	+		500 ppt (500 ng/kg)		
CCC[CH2][Sn]([Cl])([CH2]CCC)[CH2]CCC [F1, Tributyltin Chloride]						evident	
CCC[CH2][Sn]([Cl])([CH2]CCC)[CH2]CCC [F2, Tributyltin Chloride]							evident
